Literature values in patent publication US20040258741A1, “Percutaneous absorption preparations” (priority 2001, published 2004).
Where a name gives a salt, the structure may show the parent alone.

Tests used:
AChE [1] = molecular target: T1, AChE (Homo sapiens, UniProt P22303)
AChE [2] = molecular target: T1, AChE; conditions: in vitro
intracranial ACh = conditions: in vivo

T1 sequence (P22303 32-614): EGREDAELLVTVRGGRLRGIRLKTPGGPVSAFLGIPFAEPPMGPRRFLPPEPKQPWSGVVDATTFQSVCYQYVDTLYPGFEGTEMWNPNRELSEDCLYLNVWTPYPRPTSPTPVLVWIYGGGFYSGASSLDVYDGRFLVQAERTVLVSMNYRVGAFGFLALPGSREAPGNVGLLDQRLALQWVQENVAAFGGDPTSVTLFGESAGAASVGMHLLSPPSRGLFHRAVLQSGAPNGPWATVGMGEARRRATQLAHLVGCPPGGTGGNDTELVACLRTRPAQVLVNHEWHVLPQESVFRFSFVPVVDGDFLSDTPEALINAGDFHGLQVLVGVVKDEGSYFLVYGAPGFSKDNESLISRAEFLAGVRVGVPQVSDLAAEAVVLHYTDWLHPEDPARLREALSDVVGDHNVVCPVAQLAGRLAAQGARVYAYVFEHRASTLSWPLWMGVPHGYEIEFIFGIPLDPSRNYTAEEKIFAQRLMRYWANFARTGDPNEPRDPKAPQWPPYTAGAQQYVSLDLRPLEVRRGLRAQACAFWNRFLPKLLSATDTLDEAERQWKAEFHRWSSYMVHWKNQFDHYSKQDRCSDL

SMILES: COc1cc2c(cc1OC)C(=O)C(F)(CC1CCN(Cc3cccc(F)c3)CC1)C2 (stereo not drawn) [ER-127528, 4-[(5,6-dimethoxy-2-fluoro-1-indanon)-2-yl]methyl-1-(3-fluorobenzyl)piperidine hydrochloride]
- in vitro AChE inhibition action compared with Donepezil (AChE [1]): stronger in vitro AChE inhibition action than Donepezil

SMILES: O=C(O)/C=C\C(=O)O.O=C1Cc2cc3c(CCC4CCN(Cc5ccccc5)CC4)noc3cc2N1 [Icopezil, 5,7-dihydro-3-[2-[1-(phenylmethyl)-4-piperidinyl]ethyl]-6H-pyrrolo-[4,5-f]-1,2-benzisoxazol-6-one maleate]
- AChE selectivity compared with tacrine (AChE [2]): higher AChE selectivity than the existing AChE inhibitor tacrine
- intracranial ACh (intracranial ACh): clearly increases intracranial ACh in vivo
